# Where a SMILES comes first, the peptide text is derived from it. Bridges are numbered along the chain shown (N, C = ends). [ ]: non-standard residue; d: D form. The star is where a group is joined. Ileψ(thiazoline)Cys = CC[C@H](C)[C@H](N)C1=N[C@H](C(=O)*)CS1; dOrn = NCCC[C@@H](N)C(=O)O
# What was measured:
# red blood cells = test: Hemolysis on blood agar plate; conditions: 5 μL spotted; refrigerated overnight
# [1] = test system: Vancomycin-resistant enterococcus (VRE) (ATCC 51299); test: Spot on lawn, MHA plate: killing / diameter of clearance; assay type: cell-based; design: key to antibacterial activity: “+” indicates antibacterial activity with complete clearing; “−” indicates no antibacterial activity; conditions: 10 μL spot; for antibacterial activity: 24 to 48 hours at 37° C.
# MRSA (ATCC BAA44) = test: as above; assay type: cell-based, Staphylococcus aureus; conditions: for antibacterial activity: 24 to 48 hours at 37° C.
# [2] = test system: CRE NDM-1 MDR (ATCC BAA 2146); test: as above; assay type: cell-based, Enterobacteriaceae; design: key to antibacterial activity: “+” indicates antibacterial activity with complete clearing; “−” indicates no antibacterial activity; conditions: for antibacterial activity: 24 to 48 hours at 37° C.
# [3] = test system: multi-drug resistant Acinetobacter baumannii (ATCC 1797); test: as above; assay type: cell-based; conditions: 10 μL spot; for antibacterial activity: 24 to 48 hours at 37° C.
# [4] = test system: multi-drug resistant Pseudomonas aeruginosa (ATCC 2114); test: as above; assay type: cell-based; conditions: 10 μL spot; for antibacterial activity: 24 to 48 hours at 37° C.
# [5] = test system: Escherichia coli (O157:H7) (ATCC 51657); test: as above; assay type: cell-based; design: key to antibacterial activity: “+” indicates antibacterial activity with complete clearing; “−” indicates no antibacterial activity; conditions: for antibacterial activity: 24 to 48 hours at 37° C.
# [6] = test system: Stenotrophomonas maltophilia (ATCC 13637); test: as above; assay type: cell-based; design: key: “+” indicates antibacterial activity with complete clearing; “−” indicates no antibacterial activity; conditions: S. maltophilia (ATCC 13637); 10 μL spot; 24 to 48 hours at 37° C.
# [7] = test system: Mycobacterium abscessus (ATCC 19977); test: as above; assay type: cell-based; design: key: “+” indicates antibacterial activity with complete clearing; “−” indicates no antibacterial activity; conditions: 10 μL spot, 24 to 48 hours at 37° C.
# Streptococcus pyogenes = test: as above; assay type: cell-based; design: key to antibacterial activity: “+” indicates antibacterial activity with complete clearing; “−” indicates no antibacterial activity; conditions: for antibacterial activity / killing of Streptococcus pyogenes: 10 μL spot; for antibacterial activity: 24 to 48 hours at 37° C.; for killing of Streptococcus pyogenes: incubation period of 1 day; for killing of S. pyogenes: after 7 days of incubation
# Yesenia pestis (Kimo 6) = assay type: cell-based, Yersinia pestis; conditions: 10 μL spot; for antibacterial activity: Yersinia pestis KIM6, 24 to 48 hours at 37° C.; for efficacy against Yesenia pestis (Kimo 6), comparison with antibiotics: incubation period of 1 day
# [8] = test system: multi-drug-resistant E. coli CDC AR0493; test: Spot on lawn, MHA plate: killing; assay type: cell-based; conditions: 10 μL spot, 24 to 48 hours at 37° C.
# [9] = test system: multi-drug resistant Burkholderia cepacia (ATCC 10856); test: Spot on lawn, MHA plate: killing / diameter of clearance; assay type: cell-based; conditions: for killing of multi-drug resistant Burkholderia cepacia: 10 μL, overnight at 37° C. (FIG. 63); for antibacterial activity: 10 μL spot, 24 to 48 hours at 37° C.
# [10] = test system: Bacillus subtilis (ATCC 6633); test: as above; assay type: cell-based; conditions: 10 μL spot; incubation period of 1 day
# MCR-1 E. coli (AR 0350) = test: Spot on lawn, MHA plate: killing; assay type: cell-based; conditions: 10 μL drops; 1 day at 37° C.
# Source text: An overnight growth of MCR-1 E. coli (AR 0350) was made in MHB, and was spread undiluted onto a MHA plate.
# [11] = test system: multi-drug resistant E. coli (AR 0348); test: Spot on lawn, MHA plate: killing; assay type: cell-based; conditions: 10 μL; 1 day at 37° C.
# Protocol: An overnight growth of multi-drug resistant E. coli (AR 0348) was made in MHB. The samples were diluted 1:1000, and spread onto a MHA plate.
# [12] = test system: multi-drug resistant E. coli (AR 0346); test: Spot on lawn, MHA plate: killing; assay type: cell-based; conditions: 10 μL; 3 days at 37° C.
# Protocol: An overnight growth of multi-drug resistant E. coli (AR 0346) was made in MHB. The samples were diluted 1:1000, and spread onto a MHA plate.
# [13] = test system: Shigella flexneri 85W 2332; test: Spot on lawn, MHA plate: killing; assay type: cell-based; conditions: 10 μL spot, 24 to 48 hours at 37° C.
# [14] = test system: Salmonella enteriditis CDC AR0496; test: Spot on lawn, MHA plate: killing; assay type: cell-based; conditions: 10 μL spot, 24 to 48 hours at 37° C.
# MRSA BAA-1717 (USA 300) = test: Spot on lawn, MHA plate: killing / diameter of clearance; conditions: 10 μL; overnight at 37° C. (FIG. 63)
# [15] = CRE NDM-1 (MDR) ATCC BAA-2146, 10 μL spot
# [16] = CRE NDM-1 MDR (ATCC BAA 2146), 10 μL spot
# [17] = E. Coli (O157:H7) (ATCC 51657), 10 μL spot
# [18] = Mycobacterium abscessus ATCC19977
# [19] = Streptococcus pyogenes 85W 1180
# [20] = 10 μL spot, incubation period of 1 day
# [21] = Burkholderia cepacia ATCC 10856
compound,measurement,setting,value
"O=C(O)c1ccccc1O [2% salicylic acid, salicylic acid]",blood hemolysis,red blood cells,little to no hemolysis
CC[C@H](C)[C@H](N)C1=N[C@H](C(=O)N[C@@H](CC(C)C)C(=O)N[C@H](CCC(=O)O)C(=O)N[C@H](C(=O)N[C@H]2CCCCNC(=O)[C@H](CC(N)=O)NC(=O)[C@@H](CC(=O)O)NC(=O)[C@H](Cc3cnc[nH]3)NC(=O)[C@@H](Cc3ccccc3)NC(=O)[C@H]([C@@H](C)CC)NC(=O)[C@@H](CCCN)NC2=O)[C@@H](C)CC)CS1 [Bacitracin] ({Ileψ(thiazoline)Cys}-L[dE]IK[dOrn]I[dF]H[dD]N; lactam 4-C),killing of VRE,[1]; incubation period of 1 day,killed
same,antibacterial activity,[1]; VRE (ATCC 51299),−
same,antibacterial activity,[1]; VRE,−
same,antibacterial activity,"MRSA (ATCC BAA44); MRSA (ATCC BAA44), 10 μL spot",−
same,antibacterial activity,"MRSA (ATCC BAA44); MRSA ATCC BAA-44, 10 μL spot",−
same,antibacterial activity,[2]; [15],−
same,antibacterial activity,[2]; [16],−
same,antibacterial activity,[3]; A. Baumannii MDR (ATCC 1797),−
same,antibacterial activity,[3]; A. baumannii MDR ATCC 1797,−
same,antibacterial activity,[4]; P. aeruginosa MDR (ATCC 2114),−
same,antibacterial activity,[4]; P. aeruginosa MDR ATCC 2114,−
same,antibacterial activity,[5]; [17],−
same,antibacterial activity,"[5]; E. coli O157:H7, 10 μL spot",−
same,antibacterial activity,[6],−
same,antibacterial activity,[7]; M. abscessus (ATCC 19977),−
same,antibacterial activity,[7]; [18],−
same,antibacterial activity,Streptococcus pyogenes; S. pyogenes,−
same,antibacterial activity,Streptococcus pyogenes; [19],−
same,antibacterial activity,Yesenia pestis (Kimo 6),−
same,antibacterial activity,[8],−
C/C(=C\C(=O)OCCCCCCCCC(=O)O)C[C@@H]1OC[C@H](C[C@@H]2O[C@H]2[C@@H](C)[C@H](C)O)[C@@H](O)[C@H]1O [Mupirocin],antibacterial activity,[1]; VRE (ATCC 51299),−
same,antibacterial activity,[1]; VRE,−
same,killing of MRSA,"MRSA (ATCC BAA44); 10 μL spot, incubation period of 1 day (FIG. 52)",killed
same,antibacterial activity,"MRSA (ATCC BAA44); MRSA (ATCC BAA44), 10 μL spot",+
same,antibacterial activity,"MRSA (ATCC BAA44); MRSA ATCC BAA-44, 10 μL spot",+
same,killing of MRSA,MRSA (ATCC BAA44); after 4 days of incubation,only formulations that killed
same,regrowth of MRSA,MRSA (ATCC BAA44); after 4 days of incubation,not observed
same,killing of CRE NDM-1 MDR,[2]; [20],killed
same,antibacterial activity,[2]; [15],−
same,antibacterial activity,[2]; [16],−
same,killing of CRE NDM-1 MDR,[2]; after 5 days of incubation,only formulations that killed
same,regrowth of CRE NDM-1 MDR,[2]; after 5 days of incubation,not observed
same,killing of A. baumannii,[3]; incubation period of 1 day (FIG. 54),killed
same,antibacterial activity,[3]; A. Baumannii MDR (ATCC 1797),−
same,antibacterial activity,[3]; A. baumannii MDR ATCC 1797,−
same,killing of multi-drug resistant Pseudomonas aeruginosa,[4]; incubation period of 1 day (FIG. 55),killed
same,antibacterial activity,[4]; P. aeruginosa MDR (ATCC 2114),+
same,antibacterial activity,[4]; P. aeruginosa MDR ATCC 2114,+
same,killing of Escherichia coli (O157:H7),[5]; [20],killed
same,antibacterial activity,[5]; [17],+
same,antibacterial activity,"[5]; E. coli O157:H7, 10 μL spot",+
same,killing of Escherichia coli (O157:H7),[5]; after 5 days of incubation,only formulations that killed
same,regrowth of Escherichia coli (O157:H7),[5]; after 5 days of incubation,not observed
same,antibacterial activity,[6],−
same,antibacterial activity,[7]; M. abscessus (ATCC 19977),−
same,antibacterial activity,[7]; [18],−
same,killing of Streptococcus pyogenes,Streptococcus pyogenes,killed
same,antibacterial activity,Streptococcus pyogenes; S. pyogenes,+
same,antibacterial activity,Streptococcus pyogenes; [19],+
same,killing of S. pyogenes,Streptococcus pyogenes,further killed
same,killing of multi-drug resistant Burkholderia cepacia,[9],killed
same,antibacterial activity,[9]; B. cepacia (ATCC 10856),+
same,antibacterial activity,[9]; [21],+
same,"efficacy against Yesenia pestis (Kimo 6), comparison with antibiotics",Yesenia pestis (Kimo 6),more effective than MM8
same,antibacterial activity,Yesenia pestis (Kimo 6),+
same,killing of Bacillus subtilis,[10],killed
same,killing of MCR-1 E. coli (AR 0350; colisitin-resistance only),MCR-1 E. coli (AR 0350),fully killed
same,killing of multi-drug resistant E. coli (AR 0348),[11],fully killed
same,killing of multi-drug resistant E. coli (AR 0346),[12],fully killed
same,antibacterial activity,[8],+
same,antibacterial activity,[13],+
same,antibacterial activity,[14],+
same,killing of MRSA BAA-1717 (USA 300),MRSA BAA-1717 (USA 300),killed
O=C(OOC(=O)c1ccccc1)c1ccccc1 [benzoyl peroxide],blood hemolysis,red blood cells,complete hemolysis
Neomycin,antibacterial activity,[1]; VRE (ATCC 51299),−
same,antibacterial activity,[1]; VRE,−
same,antibacterial activity,"MRSA (ATCC BAA44); MRSA (ATCC BAA44), 10 μL spot",−
same,antibacterial activity,"MRSA (ATCC BAA44); MRSA ATCC BAA-44, 10 μL spot",−
same,antibacterial activity,[2]; [15],−
same,antibacterial activity,[2]; [16],−
same,antibacterial activity,[3]; A. Baumannii MDR (ATCC 1797),−
same,antibacterial activity,[3]; A. baumannii MDR ATCC 1797,−
same,antibacterial activity,[4]; P. aeruginosa MDR (ATCC 2114),−
same,antibacterial activity,[4]; P. aeruginosa MDR ATCC 2114,−
same,killing of Escherichia coli (O157:H7),[5]; [20],killed
same,antibacterial activity,[5]; [17],+
same,antibacterial activity,"[5]; E. coli O157:H7, 10 μL spot",+
same,killing of Escherichia coli (O157:H7),[5]; after 5 days of incubation,only formulations that killed
same,regrowth of Escherichia coli (O157:H7),[5]; after 5 days of incubation,not observed
same,antibacterial activity,[6],+
same,antibacterial activity,[7]; M. abscessus (ATCC 19977),−
same,antibacterial activity,[7]; [18],−
same,killing of Streptococcus pyogenes,Streptococcus pyogenes,killed
same,regrowth of Streptococcus pyogenes colonies in treated area,"Streptococcus pyogenes; FIG. 59, 7 days",colonies invaded
same,antibacterial activity,Streptococcus pyogenes; S. pyogenes,+
same,antibacterial activity,Streptococcus pyogenes; [19],+
same,killing of S. pyogenes,Streptococcus pyogenes,further killed
same,killing of multi-drug resistant Burkholderia cepacia,[9],killed
same,antibacterial activity,[9]; B. cepacia (ATCC 10856),−
same,antibacterial activity,[9]; [21],−
same,"efficacy against Yesenia pestis (Kimo 6), comparison with antibiotics",Yesenia pestis (Kimo 6),more effective than MM8
same,antibacterial activity,Yesenia pestis (Kimo 6),−
same,killing of Bacillus subtilis,[10],killed
same,antibacterial activity,[8],−

# — patent US12161689B2, “Anti-infective formulations” (NEW MEXICO TECH UNIVERSITY RESEARCH PARK CORPORATION, priority 2018, dated 2024)
